Reference: patent US4581352A, “Thienothienylglycyl cephalosporin derivatives” (priority 1984, dated 1986)
In brackets after ≈: the same amount, converted by molar mass. Read-outs that look alike come from different tables or passages of the source.

Key:
Format in all cases: cell-based
Staph. aureus = test: in vitro agar dilution assay (MIC), Staph. aureus; conditions: Staphylococcus aureus
Staph. epi = test: in vitro agar dilution assay (MIC), Staph. epi; conditions: read-out: Agar Dilution MIC
Strep. A = test: in vitro agar dilution assay (MIC), Strep. A; conditions: read-out: Agar Dilution MIC
Text: (§1) A typical and preferred compound provided by this invention is 7-(thieno[3,2-b]thien-2-yl)glycylamido-3-methyl-3-cephem-4-carboxylic acid, the compound illustrated in Example 1. The antibacterial activity of this compound and others of the invention has been determined in standard in vitro agar dilution assays against a variety of gram positive microorganisms. The following Tables present typical minimum inhibitory concentrations (MIC's) in μg/ml for several compounds of the invention when evaluated against the indicated microorganisms. MIC's for several known compounds are also presented for comparison.

Strep. PN = test: in vitro agar dilution assay (MIC), Strep. PN; conditions: read-out: Agar Dilution MIC
Text: as §1

Strep. D = test: in vitro agar dilution assay (MIC), Strep. D; conditions: for MIC: read-out: Agar Dilution MIC
Text: as §1

E. coli = test: in vitro agar dilution assay (MIC), E. coli; conditions: Escherichia coli
Klebsiella = test: in vitro agar dilution assay (MIC), Klebsiella
H. influ. = test: in vitro agar dilution assay (MIC), H. influ.
[1] = read-out: Agar Dilution MIC, Staph. aureus strain S13E
[2] = Staph. aureus strain V41, read-out: Agar Dilution MIC
[3] = Staph. aureus strain X400, read-out: Agar Dilution MIC
[4] = Staph. aureus strain X1.1, read-out: Agar Dilution MIC
[5] = Klebsiella strain KAE, read-out: Agar Dilution MIC
[6] = Klebsiella strain X26, read-out: Agar Dilution MIC
[7] = Klebsiella strain X68, read-out: Agar Dilution MIC

Compound | MIC (Staph. aureus; [1]) [µg/mL] | MIC (Staph. epi; Staph. epi strain EPI1) [µg/mL] | MIC (E. coli; E. coli strain EC14) [µg/mL] | MIC (E. coli; E. coli strain N10) [µg/mL] | MIC (E. coli; E. coli strain TEM) [µg/mL] | MIC (Staph. aureus; [2]) [µg/mL] | MIC (Staph. aureus; [3]) [µg/mL] | MIC (Staph. aureus; [4]) [µg/mL] | MIC (Staph. epi; Staph. epi strain 222) [µg/mL] | MIC (Strep. A; Strep. A strain C203) [µg/mL] | MIC (Strep. PN; Strep. PN strain PARK) [µg/mL] | MIC (Strep. D; Strep. D strain 2041) [µg/mL] | MIC (Strep. D; Strep. D strain X66) [µg/mL] | MIC (H. influ.; H. influ. strain 76) [µg/mL] | MIC (H. influ.; H. influ. strain C.L.) [µg/mL] | MIC (Klebsiella; [5]) [µg/mL] | MIC (Klebsiella; [6]) [µg/mL] | MIC (Klebsiella; [7]) [µg/mL] | MIC (Staph. aureus; read-out: Agar Dilution MIC) [µg/mL] | other results
CC1=C(C(=O)O)N2C(=O)[C@@H](NC(=O)[C@H](N)c3ccccc3)[C@H]2SC1 [Cephalexin, reference compound] | 128 (≈ 368 µM) | 32 (≈ 92.1 µM) | 4 (≈ 11.5 µM) | 8 (≈ 23 µM) | 8 (≈ 23 µM) |  |  |  |  |  |  |  |  |  |  |  |  |  |  | MIC (Staph. epi): 8 µg/mL (≈ 23 µM); MIC (Strep. A): 0.5 µg/mL (≈ 1.44 µM); MIC (Strep. PN): 2 µg/mL (≈ 5.76 µM); Agar Dilution MIC (Strep. D; Strep. D strain 2041): 128 µg/mL; MIC (Strep. D): 128 µg/mL (≈ 368 µM); MIC (Klebsiella; read-out: Agar Dilution MIC, Klebsiella strain KAE): 128 µg/mL (≈ 368 µM); MIC (Klebsiella; read-out: Agar Dilution MIC, Klebsiella strain X26): 4 µg/mL (≈ 11.5 µM); MIC (Klebsiella; read-out: Agar Dilution MIC, Klebsiella strain X68): 8 µg/mL (≈ 23 µM)
CC1=C(C(=O)O)N2C(=O)[C@@H](NC(=O)[C@@H](N)c3cc4ccsc4s3)[C@H]2SC1 [Ex. 3B, 7-L-(thieno[2,3-b]thien-2-yl)-glycylamido-3-methyl-3-cephem-4-carboxylic acid] | 64 (≈ 156 µM) | 8 (≈ 19.5 µM) | > 64 | > 64 | > 64 | 64 (≈ 156 µM) | > 64 | 1 (≈ 2.44 µM) | 2 (≈ 4.88 µM) | 1 (≈ 2.44 µM) | 2 (≈ 4.88 µM) | > 64 | > 64 | 1 (≈ 2.44 µM) | 16 (≈ 39.1 µM) | > 64 | 16 (≈ 39.1 µM) | > 64 |  | 
CC1=C(C(=O)O)N2C(=O)[C@@H](NC(=O)[C@H](N)c3cc4sc(Cl)cc4s3)[C@H]2SC1 [Ex. 2B, 7-D-(5-chlorothieno[3,2-b]thien-2-yl)glycylamido-3-methyl-3-cephem-4-carboxylic acid] |  | 4 (≈ 9.01 µM) | > 64 | > 64 | > 64 | 16 (≈ 36 µM) | > 64 | 0.25 (≈ 0.563 µM) | 0.5 (≈ 1.13 µM) | 0.125 (≈ 0.282 µM) | 0.25 (≈ 0.563 µM) | 64 (≈ 144 µM) | > 64 | 2 (≈ 4.5 µM) | 32 (≈ 72.1 µM) | > 64 | 16 (≈ 36 µM) | > 64 |  | 
CC1=C(C(=O)O)N2C(=O)[C@@H](NC(=O)[C@H](N)c3cc4sccc4s3)[C@H]2SC1 [Ex. 1A, 7-D-(thieno[3,2-b]thien-2-yl)-glycylamido-3-methyl-3-cephem-4-carboxylic acid] | 64 (≈ 156 µM) | 16 (≈ 39.1 µM) | > 64 | > 64 | > 64 |  | > 64 | 0.5 (≈ 1.22 µM) | 2 (≈ 4.88 µM) | 0.25 (≈ 0.61 µM) | 1 (≈ 2.44 µM) | > 64 | > 64 | 2 (≈ 4.88 µM) | 64 (≈ 156 µM) | > 64 | 8 (≈ 19.5 µM) | > 64 | 32 (≈ 78.1 µM) | 
CC1=C(C(=O)O)N2C(=O)[C@@H](NC(=O)[C@@H](N)c3cc4sc(Cl)cc4s3)[C@H]2SC1 [Ex. 2A, 7-L-(5-chlorothieno[3,2-b]thien-2-yl)glycylamido-3-methyl-3-cephem-4-carboxylic acid] | 32 (≈ 72.1 µM) | 16 (≈ 36 µM) | > 64 | > 64 | > 64 | 64 (≈ 144 µM) | > 64 | 1 (≈ 2.25 µM) | 2 (≈ 4.5 µM) | 1 (≈ 2.25 µM) | 2 (≈ 4.5 µM) | > 64 | > 64 | 2 (≈ 4.5 µM) | 64 (≈ 144 µM) | > 64 | 64 (≈ 144 µM) | > 64 |  | 
CC1=C(C(=O)O)N2C(=O)[C@@H](NC(=O)[C@@H](N)c3cc4sccc4s3)[C@H]2SC1 [Ex. 1B, 7-L-(thieno[3,2-b]thien-2-yl)-glycylamido-3-methyl-3-cephem-4-carboxylic acid] | 64 (≈ 156 µM) | 64 (≈ 156 µM) | > 64 | > 64 | > 64 |  | > 64 | 8 (≈ 19.5 µM) | 16 (≈ 39.1 µM) | 16 (≈ 39.1 µM) | 16 (≈ 39.1 µM) | > 64 | > 64 |  | 64 (≈ 156 µM) | > 64 | > 64 | > 64 | 32 (≈ 78.1 µM) | 
CC1(C)S[C@@H]2[C@H](NC(=O)[C@H](N)c3ccccc3)C(=O)N2[C@H]1C(=O)O [Ampicillin, reference compound] | 64 (≈ 183 µM) | 8 (≈ 22.9 µM) | 4 (≈ 11.4 µM) | 8 (≈ 22.9 µM) |  |  |  |  |  | 0.03 (≈ 0.0859 µM) | 0.03 (≈ 0.0859 µM) | 2 (≈ 5.72 µM) |  | 16 (≈ 45.8 µM) | 0.5 (≈ 1.43 µM) |  | 16 (≈ 45.8 µM) | 16 (≈ 45.8 µM) |  | MIC (Strep. D): 4 µg/mL (≈ 11.4 µM)
CC1=C(C(=O)O)N2C(=O)[C@@H](NC(=O)[C@H](N)c3cc4ccsc4s3)[C@H]2SC1 [Ex. 3A, 7-D-(thieno[2,3-b]thien-2-yl)-glycylamido-3-methyl-3-cephem-4-carboxylic acid] | 16 (≈ 39.1 µM) | 4 (≈ 9.77 µM) | 64 (≈ 156 µM) | > 64 | > 64 |  | > 64 | 0.5 (≈ 1.22 µM) | 1 (≈ 2.44 µM) | 0.25 (≈ 0.61 µM) | 0.5 (≈ 1.22 µM) | > 64 | > 64 | 2 (≈ 4.88 µM) |  | > 64 | 8 (≈ 19.5 µM) | > 64 | 32 (≈ 78.1 µM) | 
